Experimental data taken from ChEMBL document CHEMBL1201862, “PubChem BioAssay data set” (2004).
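In this assay, cells in 96-well plates receive the compound at five concentrations for 48 hours. Endpoints are linearly interpolated between the surrounding concentrations. Abbreviation: GI50, concentration required for 50% inhibition of growth.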 Calls of active or inactive are those of the source. No stated cut-off is given here; in the data, active = GI50 up to about 1.1 µM and inactive = higher.

Key:
Assay in all cases: growth of human tumour cells (NCI), 48 h
KM12 = tested on: KM12
TK-10 = tested on: TK-10
786-0 = tested on: 786-0
SN12C = tested on: SN12C
NCI-H226 = tested on: NCI-H226
NCI-H522 = tested on: NCI-H522
CAKI-1 = tested on: CAKI-1
OVCAR-5 = tested on: OVCAR-5
HCC 2998 = tested on: HCC 2998
MDA-MB-435 = tested on: MDA-MB-435
Hs-578T = tested on: Hs-578T
SNB-19 = tested on: SNB-19
HL-60 = tested on: HL-60
UACC-62 = tested on: UACC-62
A549 = tested on: A549
T47D = tested on: T47D
NCI-H460 = tested on: NCI-H460
SF-539 = tested on: SF-539
HOP-92 = tested on: HOP-92
SK-OV-3 = tested on: SK-OV-3

| SMILES | GI50 (KM12) | GI50 (TK-10) | GI50 (786-0) | GI50 (SN12C) | GI50 (NCI-H226) | GI50 (NCI-H522) | GI50 (CAKI-1) | GI50 (OVCAR-5) | GI50 (HCC 2998) | GI50 (MDA-MB-435) | GI50 (Hs-578T) | GI50 (SNB-19) | GI50 (HL-60) | GI50 (UACC-62) | GI50 (A549) | GI50 (T47D) | GI50 (NCI-H460) | GI50 (SF-539) | GI50 (HOP-92) | GI50 (SK-OV-3) |
| --- | --- | --- | --- | --- | --- | --- | --- | --- | --- | --- | --- | --- | --- | --- | --- | --- | --- | --- | --- | --- |
| COc1ccc2nc3cc(Cl)ccc3c(Nc3ccc(O)c(CN4CCN(C)CC4)c3)c2c1 | 1.91 µM (inactive) | 1.97 µM (inactive) | 1.5 µM (inactive) | 1.85 µM (inactive) | 20.5 µM (inactive) | 1.78 µM (inactive) | 1.92 µM (inactive) | 2.41 µM (inactive) | 1.19 µM (inactive) | 1.62 µM (inactive) | 1.89 µM (inactive) | 2.43 µM (inactive) | 1.95 µM (inactive) | 1.72 µM (inactive) | 1.87 µM (inactive) | 2.09 µM (inactive) | 1.72 µM (inactive) | 1.79 µM (inactive) | 1.72 µM (inactive) | 5.79 µM (inactive) |
| CCOc1cc2c(cc1O)C=C[C@@H]1[C@@H]2CC[C@]2(C)[C@@H](O)CC[C@@H]12 | 5.3 µM (inactive) | 14.4 µM (inactive) | 4.35 µM (inactive) | 4.52 µM (inactive) | 4.06 µM (inactive) | 1.77 µM (inactive) | 5.28 µM (inactive) | 27.6 µM (inactive) | 6.34 µM (inactive) | 0.334 µM (active) | 4.19 µM (inactive) | 3.52 µM (inactive) | 0.579 µM (active) | 4.07 µM (inactive) | 4.27 µM (inactive) | 6.01 µM (inactive) | 2.05 µM (inactive) | 2.04 µM (inactive) | 29.9 µM (inactive) | 3.34 µM (inactive) |
| Cc1ccc(S(=O)(=O)N2C[C@@H]3CC[C@]4(CO[Si](C)(C)C(C)(C)C)N[C@@H](c5ccccc5)[C@H]2[C@H]34)cc1 | 26.5 µM (inactive) | 38.5 µM (inactive) | 27.8 µM (inactive) | 19.6 µM (inactive) | 14.4 µM (inactive) | 11.6 µM (inactive) | 27.2 µM (inactive) | 77.8 µM (inactive) | 18.4 µM (inactive) | 39.2 µM (inactive) | 27.4 µM (inactive) | 61.4 µM (inactive) | 12.7 µM (inactive) | 56.4 µM (inactive) | 22.4 µM (inactive) | 8.18 µM (inactive) | 26.1 µM (inactive) | 32.4 µM (inactive) | 3.44 µM (inactive) | 68.1 µM (inactive) |
| c1ccc(NNN2NC(c3ccccc3)C2c2ccccc2)cc1 (stereo not given) | > 100 µM (inactive) | > 100 µM (inactive) | > 100 µM (inactive) | > 100 µM (inactive) | > 100 µM (inactive) | 71.9 µM (inactive) | > 100 µM (inactive) | > 100 µM (inactive) | > 100 µM (inactive) | > 100 µM (inactive) | > 100 µM (inactive) | > 100 µM (inactive) | 49.5 µM (inactive) | > 100 µM (inactive) | 60 µM (inactive) | > 100 µM (inactive) | 72.4 µM (inactive) | > 100 µM (inactive) | > 100 µM (inactive) | > 100 µM (inactive) |
| c1ccc(/N=C2/SC(c3ccccc3)(c3ccccc3)c3ccccc32)cc1 | > 100 µM (inactive) | > 100 µM (inactive) | > 100 µM (inactive) | > 100 µM (inactive) | > 100 µM (inactive) | > 100 µM (inactive) | > 100 µM (inactive) | > 100 µM (inactive) | > 100 µM (inactive) | > 100 µM (inactive) | > 100 µM (inactive) | > 100 µM (inactive) | > 100 µM (inactive) | > 100 µM (inactive) | > 100 µM (inactive) | > 100 µM (inactive) | > 100 µM (inactive) | > 100 µM (inactive) | > 100 µM (inactive) | > 100 µM (inactive) |
| N=C(N)SCc1ccc2c(c1)Sc1ccccc1O2 | 5.32 µM (inactive) | 5.11 µM (inactive) | 4.76 µM (inactive) | 8.95 µM (inactive) | 11.2 µM (inactive) | 1.44 µM (inactive) | 6.46 µM (inactive) | 11.6 µM (inactive) | 2.35 µM (inactive) | 3.78 µM (inactive) | 4.56 µM (inactive) | 11.4 µM (inactive) | 4.57 µM (inactive) | 4.62 µM (inactive) | 6.73 µM (inactive) | 8.07 µM (inactive) | 6.79 µM (inactive) | 2.07 µM (inactive) | 6.31 µM (inactive) | 12.9 µM (inactive) |
